Data taken from patent publication US20240148821A1, “PHARMACEUTICAL USE OF CYCLIC PEPTIDE COMPOUND” (CHUGAI SEIYAKU KABUSHIKI KAISHA, priority 2021, published 2024).
Numbered stars: 1 amine (or outer) side, 2 acyl side, 3 side chain; on linkers, the order of the positions; unused ones are H or OH. Bridge positions count the residues as written; N and C are the ends. Square brackets hold non-standard residues; d marks the D form. Peptide text beside a SMILES is read from it. * marks the point of attachment. hPhe(3-Cl-4-CF3) = N[C@@H](CCc1ccc(C(F)(F)F)c(Cl)c1)C(=O)O; NMePhe(3-CN) = CN[C@@H](Cc1cccc(C#N)c1)C(=O)O; X59 = Cc1ccc(Br)cc1C[C@H](N[*:1])C(=O)[*:2]; NMePhe(2-Cl) = CN[C@@H](Cc1ccccc1Cl)C(=O)O; NMePhe(3-F) = CN[C@@H](Cc1cccc(F)c1)C(=O)O; NMeMet(O2) = CN[C@@H](CCS(C)(=O)=O)C(=O)O; NMedβ3hAla = C[C@H](CC(=O)[*:2])N(C)[*:1]; Phe(2-F) = N[C@@H](Cc1ccccc1F)C(=O)O; NMeY = CN[C@@H](Cc1ccc(O)cc1)C(=O)O; NMeCha = CN[C@@H](CC1CCCCC1)C(=O)O; NMeChg = CN[C@H](C(=O)O)C1CCCCC1; NMeI = CC[C@H](C)[C@H](NC)C(=O)O; N(CH2CH2)2CF2 = FC1(F)CCN(*)CC1; NMeD = CN[C@@H](CC(=O)O)C(=O)O; NMeL = CN[C@@H](CC(C)C)C(=O)O; NMeV = CN[C@H](C(=O)O)C(C)C; NMeAbu = CC[C@H](NC)C(=O)O; NMeA = CN[C@@H](C)C(=O)O; NMeAib = CNC(C)(C)C(=O)O; Nle = CCCC[C@H](N)C(=O)O; Piperidide = C1CCN(*)CC1; Pyrrolidide = C1CCN(*)C1; Ac5c = NC1(C(=O)O)CCCC1; Aze = O=C(O)[C@@H]1CCN1; Ac4c = NC1(C(=O)O)CCC1; βAla = NCCC(=O)O; Sar = CNCC(=O)O

These compounds were tested on Human pancreatic cancer cell line AsPC-1 (G12D mutation Kras) (assay: AsPC-1 cell growth inhibition (AsPC-1 CGI)). Conditions: read-out: AsPC-1 cell growth inhibition, 50% growth inhibitory concentration (IC50 value); 96 hours, CellTiter-Glo, values classified in ranges.
Assay type: cell-based
Protocol: Test compounds were serially dilated with dimethyl sulfoxide, and 200 nL was then dispensed to a U-bottom 96-well plate using Labcyte Echo. […] The cell suspension was dispensed to a. plate containing a test compound at 100 μL per well and incubated at 37° C. in a 5% carbon dioxide gas incubator. 96 hours later, 80 μL of CellTiter-Glo (Promega) was added to each well and fluorescence was measured.
With `CC[C@H](C)[C@@H]1NC(=O)[C@H](CC(C)C)N(C)C(=O)C[C@@H](C(=O)N2CCCCC2)N(C)C(=O)[C@H](C(C)C)N(C)C(=O)C2(CCCC2)NC(=O)[C@@H]2CCCN2C(=O)[C@H](CCc2ccc(C(F)(F)F)c(Cl)c2)NC(=O)CN(C)C(=O)[C@H](Cc2cccc(C#N)c2)N(C)C(=O)CN(C)C(=O)CN(C)C1=O` [Compound 710] ([NMeL]I[Sar][Sar][NMePhe(3-CN)][Sar][hPhe(3-Cl-4-CF3)]P[Ac5c][NMeV][NMeD]-Piperidide; lactam N-11) the IC50 was > 500 nM. `CC[C@H](C)[C@@H]1NC(=O)[C@H](CC(C)C)N(C)C(=O)C[C@@H](C(=O)N2CCCCC2)N(C)C(=O)[C@H](CC2CCCCC2)N(C)C(=O)C2(CCCC2)NC(=O)[C@@H]2CCCN2C(=O)[C@H](CCc2ccc(C(F)(F)F)c(Cl)c2)NC(=O)CN(C)C(=O)[C@H](CC2CCCCC2)N(C)C(=O)CN(C)C(=O)CN(C)C1=O` [Compound 577] ([NMeL]I[Sar][Sar][NMeCha][Sar][hPhe(3-Cl-4-CF3)]P[Ac5c][NMeCha][NMeD]-Piperidide; lactam N-11) was tested, and the IC50 was > 500 nM. With `CCCC[C@@H]1NC(=O)[C@H](Cc2ccccc2F)NC(=O)CN(C)C(=O)[C@H](Cc2ccc(OC)cc2)N(C)C(=O)CN(C)C(=O)CN(C)C(=O)[C@H]([C@@H](C)CC)NC(=O)[C@H](CC(C)C)N(C)C(=O)C[C@@H](C(=O)N2CCCCC2)N(C)C(=O)[C@H](CC(C)C)NC(=O)[C@H](Cc2ccc(OC)cc2)N(C)C1=O` [Compound 681] ([NMeL]I[Sar][Sar][NMeY](Me)[Sar][Phe(2-F)][Nle][NMeY](Me)L[NMeD]-Piperidide; lactam N-11) the IC50 was > 500 nM. With `CC[C@H](C)[C@@H]1NC(=O)[C@H](CC(C)C)N(C)C(=O)C[C@@H](C(=O)N2CCCCC2)N(C)C(=O)[C@H](CCS(C)(=O)=O)N(C)C(=O)C2(CCCC2)NC(=O)[C@@H]2CCCN2C(=O)[C@H](CCc2ccc(C(F)(F)F)c(Cl)c2)NC(=O)CN(C)C(=O)[C@H](CC2CCCCC2)N(C)C(=O)CN(C)C(=O)CN(C)C1=O` [Compound 162] ([NMeL]I[Sar][Sar][NMeCha][Sar][hPhe(3-Cl-4-CF3)]P[Ac5c][NMeMet(O2)][NMeD]-Piperidide; lactam N-11) the IC50 was > 500 nM. In the case of `CCCC[C@@H]1NC(=O)[C@H](Cc2cc(Br)ccc2C)NC(=O)CN(C)C(=O)[C@H](Cc2ccc(OC)cc2)N(C)C(=O)[C@@H]2CCN2C(=O)[C@H](C)N(C)C(=O)[C@H]([C@@H](C)CC)NC(=O)[C@H](CC)N(C)C(=O)C[C@@H](C(=O)N2CCCCC2)N(C)C(=O)[C@H](CC(C)C)NC(=O)C(C)(C)N(C)C1=O` [Compound 1195] ([NMeAbu]I[NMeA][Aze][NMeY](Me)[Sar][X59][Nle][NMeAib]L[NMeD]-Piperidide; lactam N-11), the IC50 is reported as > 500 nM. For `CC[C@H](C)[C@@H]1NC(=O)[C@H](CC(C)C)N(C)C(=O)C[C@@H](C(=O)N(C)C)N(C)C(=O)[C@H](C(C)C)N(C)C(=O)C2(CCCC2)NC(=O)[C@H](CC(=O)N2CCC(F)(F)CC2)N(C)C(=O)[C@H](CCc2ccc(C(F)(F)F)c(Cl)c2)NC(=O)CN(C)C(=O)[C@H](CC2CCCCC2)N(C)C(=O)CN(C)C(=O)CN(C)C1=O` [Compound 218] ([NMeL]I[Sar][Sar][NMeCha][Sar][hPhe(3-Cl-4-CF3)][NMeD](N(CH2CH2)2CF2)[Ac5c][NMeV][NMeD]-NMe2; lactam N-11), the IC50 was > 500 nM. `CC[C@H](C)[C@@H]1NC(=O)[C@H](C)N(C)C(=O)C[C@@H](C)N(C)C(=O)[C@H](CC(C)C)NC(=O)C(C)(C)N(C)C(=O)[C@H](CC(C)C)NC(=O)[C@H](CCc2ccc(C(F)(F)F)c(Cl)c2)NC(=O)CN(C)C(=O)[C@H](CC2CCCCC2)N(C)C(=O)[C@@H]2CCN2C(=O)CN(C)C1=O` [Compound 1387] (cyclo([Aze][NMeCha][Sar][hPhe(3-Cl-4-CF3)]L[NMeAib]L[NMedβ3hAla][NMeA]I[Sar])) was tested, and the IC50 was > 500 nM. In the case of `CC[C@H](C)[C@@H]1NC(=O)[C@H](CC(C)C)N(C)C(=O)C[C@@H](C(=O)N2CCCC2)N(C)C(=O)[C@H]([C@@H](C)CC)N(C)C(=O)C2(CCCC2)NC(=O)[C@@H]2CCCN2C(=O)[C@H](CCc2ccc(C(F)(F)F)c(Cl)c2)NC(=O)CN(C)C(=O)[C@H](CC2CCCCC2)N(C)C(=O)CN(C)C(=O)CN(C)C1=O` [Compound 1662] ([NMeL]I[Sar][Sar][NMeCha][Sar][hPhe(3-Cl-4-CF3)]P[Ac5c][NMeI][NMeD]-Pyrrolidide; lactam N-11), the IC50 is reported as ≤ 20 nM. With `CC[C@H](C)[C@@H]1NC(=O)[C@H](C)N(C)C(=O)C[C@@H](C(=O)N2CCCC2)N(C)C(=O)[C@H](C(C)C)N(C)C(=O)C2(CCC2)NC(=O)[C@H](Cc2ccccc2Cl)N(C)C(=O)[C@H](CCc2ccc(C(F)(F)F)c(Cl)c2)NC(=O)CN(C)C(=O)[C@H](CC2CCCCC2)N(C)C(=O)CN(C)C(=O)CN(C)C1=O` [Compound 906] ([NMeA]I[Sar][Sar][NMeCha][Sar][hPhe(3-Cl-4-CF3)][NMePhe(2-Cl)][Ac4c][NMeV][NMeD]-Pyrrolidide; lactam N-11) the IC50 was > 500 nM. With `CC[C@H](C)[C@@H]1NC(=O)CCNC(=O)[C@H](Cc2cccc(F)c2)N(C)C(=O)[C@H](C2CCCCC2)N(C)C(=O)C2(CCCC2)NC(=O)[C@@H]2CCCN2C(=O)[C@H](CCc2ccc(C(F)(F)F)c(Cl)c2)NC(=O)CN(C)C(=O)[C@H](CC2CCCCC2)N(C)C(=O)CN(C)C(=O)CN(C)C1=O` [Compound 237] (cyclo([Ac5c][NMeChg][NMePhe(3-F)][βAla]I[Sar][Sar][NMeCha][Sar][hPhe(3-Cl-4-CF3)]P)) the IC50 was > 500 nM.
